This is an account of results in US4663310A, “Renin inhibitors containing 2-substituted statine” (Merck & Co., Inc., priority 1984, dated 1987).

Starred links: 1 amine or outer side, 2 acyl side, 3 side chain; linkers in the order of their positions; H or OH if unused. Non-standard residues stand in square brackets, D forms with d. Residues, ends and D or L forms follow the SMILES beside them. *: point of attachment. X1 = CC(C)CC(C(=O)[*:2])[C@H](O)[C@H](CC(C)C)N[*:1]; Isobutyryl = CC(C)C(=O)*

The target of one assay is T1, human plasma renin (Homo sapiens, UniProt P00797).
T1 construct: Further assays measured human plasma renin and dog plasma renin; from tissue; host or cells: human plasma
T1 sequence (P00797 67-406): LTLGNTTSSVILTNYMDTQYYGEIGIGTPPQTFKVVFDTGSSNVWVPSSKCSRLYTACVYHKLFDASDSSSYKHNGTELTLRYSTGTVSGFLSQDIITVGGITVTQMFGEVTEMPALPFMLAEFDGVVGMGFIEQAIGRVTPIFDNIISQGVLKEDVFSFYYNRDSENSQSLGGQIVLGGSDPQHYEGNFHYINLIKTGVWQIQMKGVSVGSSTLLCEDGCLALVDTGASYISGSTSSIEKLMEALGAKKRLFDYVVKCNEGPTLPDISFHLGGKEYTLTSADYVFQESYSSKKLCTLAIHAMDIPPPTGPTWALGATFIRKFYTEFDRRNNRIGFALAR
Kind of assay: Human plasma renin assay. In kind it is biochemical. Conditions: read-out: Renin Inhibition Human Plasma I50. How it is done: (§1) Assays were carried out in order to determine the inhibitory potency of the peptides of the present invention. One assay measured the inhibition of hog kidney renin, and was in accordance with the procedure described in Rich et al., J. Med. Chem. 23: 27, 1980, except that a pH of 7.3 was used. Another assay measured the inhibition of human kidney renin purified as described in Bangham, D. R., Robertson, I., Robinson, J. I. S., Robinson, C. J., and Tree, M., Clinical Science and Molecular Medicine, 48 (Supp. 2): 136s-159s (1975), and further purified by affinity chromatography on pepstatin-aminohexyl-Sepharase as described in Poe, M., Wu., J. K., Florance, J. R., Radkey, J. A., Bennett, C. D., and Hoogsteen, K., J. Biol. Chem. 258: 2209-2216 (1983). The assay was also in accordance with Poe et al. cited above. Further assays measured human plasma renin and dog plasma renin in accordance with procedures described in Boger et al., Nature, 303: 81-84 (1983).

A further assay concerns the target T2, dog plasma renin (Canis lupus familiaris, UniProt Q6DYE7).
T2 construct: Further assays measured human plasma renin and dog plasma renin; from tissue; host or cells: dog plasma
T2 sequence (Q6DYE7 66-403): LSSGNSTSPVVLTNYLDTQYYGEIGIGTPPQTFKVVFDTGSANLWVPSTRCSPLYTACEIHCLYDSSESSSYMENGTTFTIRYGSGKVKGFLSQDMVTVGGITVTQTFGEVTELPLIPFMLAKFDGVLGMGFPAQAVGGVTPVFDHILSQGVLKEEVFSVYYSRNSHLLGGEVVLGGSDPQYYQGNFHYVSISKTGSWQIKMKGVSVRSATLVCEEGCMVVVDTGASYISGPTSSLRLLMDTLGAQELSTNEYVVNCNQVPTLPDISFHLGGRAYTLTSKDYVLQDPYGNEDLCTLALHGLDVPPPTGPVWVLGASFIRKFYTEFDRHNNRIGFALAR
Kind of assay: Dog plasma renin assay. In kind it is biochemical. The note with it: for IC50: read-out: Renin Inhibition Dog Plasma I50. How it is done:
as §1

The target of a further assay is T3, human kidney renin (Homo sapiens, UniProt P00797).
T3 construct: human kidney renin purified as described in Bangham; from tissue; host or cells: human kidney
T3 sequence (P00797 67-406): T1 sequence (P00797 67-406)
Briefly: Inhibition of purified human kidney renin. In kind it is biochemical. Conditions: dissociation constant of the inhibited enzyme inhibitor complex. Here is the method: as §1
Results expressed as KI values refer to the dissociation constant of the inhibited enzyme inhibitor complex. This KI value was obatined as described above. Pepstatin was used as an active control.

The test system of a further assay is hog kidney renin. Briefly: Inhibition of hog kidney renin. In kind it is biochemical. The note with it: pH 7.3; read-out: Renin Inhibition Hog Kidney I50. Here is the method: as §1
In another assay the test system is acid proteases. Conditions: cited from earlier work.
In the next assay the test system is nephrectomized rats. The note with it: after the injection of hog renin into nephrectomized rats; Gross et al.; cited from earlier work.

Usually Ki stands for the equilibrium dissociation constant of an inhibitor or competing ligand from its target. Read a low Ki as higher affinity.

Regarding `CC(C)C[C@H](NC(=O)[C@H](CC(C)C)[C@H](O)[C@H](Cc1ccccc1)NC(=O)[C@H](Cc1c[nH]cn1)NC(=O)[C@H](Cc1ccccc1)NC(=O)OC(C)(C)C)C(=O)NCc1ccccc1` [BOCPheHis(2- -i-Bu)AHPPALeu, tert-Butyloxycarbonyl-L-phenylalanyl-L-histidyl-4(S)-amino-3(S)-hydroxy-2(R)-iso-butyl-5-phenylpentanoyl-L-leucyl-benzylamide], the figures for the IC50 at human plasma renin and at dog plasma renin were 8.2 nM and 3.5 nM, respectively. Also, on human kidney renin, the Ki was 9.3 nM.

For `CC(C)C[C@H](NC(=O)[C@H](CC(C)C)[C@H](O)[C@H](CC(C)C)NC(=O)[C@H](Cc1c[nH]cn1)NC(=O)[C@H](Cc1ccccc1)NC(=O)OC(C)(C)C)C(=O)NCc1ccccc1` [BOCPheHis(2- -i-Bu)StaLeu], the “Renin Inhibition Dog Plasma % I” value at dog plasma renin (I 10^-6) is 0%. At human kidney renin, the inhibition constant (Ki) worked out at 10 nM.

Turning to `CC(C)CC[C@@H](C(=O)N[C@@H](CC(C)C)C(=O)NCc1ccccc1)[C@H](O)[C@H](Cc1ccccc1)NC(=O)[C@H](Cc1c[nH]cn1)NC(=O)[C@H](Cc1ccccc1)NC(=O)OC(C)(C)C` [BOCPheHis(2- -i-Pent)AHPPALeu], the IC50 at human plasma renin was determined as 65 nM; on dog plasma renin, 6.2 nM. The molecule also registered an inhibition constant Ki on human kidney renin of 4.4 nM.

Consider `CC(C)CC(C(=O)N[C@@H](CC(C)C)C(=O)N[C@@H](Cc1ccccc1)C(N)=O)[C@H](O)[C@H](CC(C)C)NC(=O)[C@H](Cc1ccccc1)NC(=O)[C@H](Cc1ccccc1)NC(=O)[C@@H]1CCCN1C(=O)[C@H](Cc1c[nH]cn1)NC(=O)C(C)C` (some centres unmarked) [IBUHisProPhePhe(2- -i-Bu)StaLeuPheNH2] (Isobutyryl-HPFF[X1]LF-NH2), for which, in the assay on hog kidney renin, the IC50 came to 22 nM.

In the case of Pepstatin, the “inhibition of other acid proteases (selectivity)” value in the assay on acid proteases is on record as “inhibition of a variety of other acid proteases in addition to renin”. Moreover, the “blood pressure in vivo” value in the assay on nephrectomized rats was “reduce blood pressure”.
